Experimental data: US20250170224A1, “METHODS AND COMPOSITIONS FOR TREATING MICROGLIAL DYSFUNCTION AND IMPROVING METABOLIC DYSFUNCTION” (Ultimate Medicine AG, priority 2021, published 2025)

Experiments:
[1] = In vivo intestinal permeability to CML (CML translocated into the circulation after oral gavage, LC-MS); set-up: species or system mouse; details: young-adult and aged mice, SPF or GF, 4 hours post gavage
Protocol: Specific pathogen-free (SPF) and germ-free (GF) housed C57BL/6 mice were analyzed at 6-10 weeks of age (young-adult) and 96-104 weeks of age (aged). Mice of the aged group in the nontargeted metabolomics analysis were 17-18 months old. Except for nontargeted metabolomics and microbiota profiling, where only male mice were used, all groups included mice from both sexes. Mice were housed under a 12-hour light/12-hour dark cycle and temperatures of 18-23° C. with 40-60% humidity, with food and water given ad libitum. To avoid cage effects, mice from at least three different cages per experimental group were analyzed. […] Blood was collected retro-orbitally after 4 hours and fluorescence intensity was measured on fluorescence plates using an excitation wavelength of 493 nm and an emission wavelength of 518 nm. […] CML translocated into the circulation was measured by liquid chromatography-mass spectrometry (LC-MS). […]
Samples were extracted with precooled (−80° C.) extraction solution (80:20 methanol LC-MS grade: Milli-Q H2O). Targeted metabolite quantification by LC-MS was carried out using an Agilent 1290 Infinity II UHPLC system in line with an Agilent 6495 QQQ-MS operating in multiple reaction monitoring (MRM) mode. […] Peak areas were identified based on standards for each metabolite and calculated using MassHunter v.B.08.02 (Agilent). […]

[2] = tested on: bone marrow-derived macrophages (BMDMs); test: Bone marrow derived macrophages incubated with increasing concentrations of CML for 48 hours; format: cell-based, murine; details: in vitro, increasing concentrations of CML (0.1 pM, 1 pM, 10 pM, 100 pM, 1 mM)
Protocol: Cells were cultured at 37° C. and 5% CO2 in a humidified incubator. Murine BMDMs were differentiated from tibial and femoral bone marrow aspirates. Recombinant murine macrophage colony-stimulating factor (Immunotools) was used at 20 ng ml^−1. After 7 days of differentiation, BMDMs were seeded in 24-well plates with 5×10^5 cells per well in triplicates. The medium was switched to serum-free medium 6 hours before the experiment. Cells were incubated with increasing concentrations of CML (untreated, 0.1 pM, 1 pM, 10 pM, 100 pM, 1 mM) for 48 hours, then collected for measurements.
Cell sorting for RT-qPCR and RNA sequencing (RNA-seq) was performed on a MoFlo Astrios (Beckman Coulter; FIG. 7a). Before surface staining, dead cells were excluded by using the Fixable Viability Dye eFluor 780 (1:1,000 dilution; Thermo Fisher Scientific) followed by incubation with Fc receptor blocking antibody CD16/CD32 (1:200 dilution, clone 2.4G2; BD Bioscience). The following antibodies were used for surface staining: anti-CD45 (1:200 dilution, clone 30-F11; Thermo Fisher Scientific); anti-CD11b (1:200 dilution, clone MI/70; Thermo Fisher Scientific). The following lineage antibodies were used (all at 1:300 dilution): anti-CD3 (clone 17A2; BioLegend); anti-CD19 (clone 6D5; BioLegend); anti-CD45R (clone RA3-6B2; BD Biosciences); Ly6C (clone AL-21; BD Biosciences); Ly6G (clone 1A8; BD Biosciences). […]

N[C@@H](CCCCNCC(=O)O)C(=O)O [CML, N^6-carboxymethyllysine]
translocation of CML into the circulation after oral gavage [1]: highest in aged SPF mice | metabolic activity (mitochondrial activity) in BMDMs [2]: decreased metabolic activity | oxidative stress (cellular ROS) in BMDMs [2]: dose-dependent increase in oxidative stress
